Results published in BindingDB's records for doi:10.1021/jm9606507 (Warner-Lambert, 1997).
pIC50: −log10 of the molar value.

Assay: Inhibition of Endothelin A receptor mediated (ET-1) release of arachidonic acid from rabbit renal artery vascular smooth muscle cells

pIC50: 9.01
Compound: COc1ccc(C(=O)/C(Cc2cc(OC)c(OC)c(OC)c2)=C(\C(=O)O)c2ccc3c(c2)OCO3)cc1C [Sodium; (Z)-2-benzo[1,3]dioxol-5-yl-4-(4-methoxy-3-methyl-phenyl)-4-oxo-3-(3,4,5-trimethoxy-benzyl)-but-2-enoate]
